Reference: patent publication USRE46856E1, “Substituted 2,3-dihydroimidazo[1,2-c]quinazoline derivatives useful for treating hyper-proliferative disorders and diseases associated with angiogenesis” (Bayer Intellectual Property GmbH, priority 2006, dated 2018)

The molecules below were run on IGF-1 induced AKT phosphorylation in A549 cells (assay: IGF-1 induced AKT phosphorylation assay (A549 cell assay)). Settings: Homo sapiens; A549 cells, 25 ng/ml IGF-1, phospho-AKT(Ser 473); read-out: average IC50 in the A549 cell assay.
Type: cell-based
Excerpt: [Determination of IC50 Values of Compounds in Cell Based Assays of PI3K Activity] 96-well collagen treated clear bottom/black sided Costar plates were purchased from CORNING LIFE SCIENCES (Corning, N.Y.; at.#3904). Gibco RPMI medium (Cat.#11875), Biosource anti-phospho-AKT([…]) antibody (Cat.#44-621G) and recombinant IGF-1 (Cat.#PHG0074) were purchased from INVITROGEN (Carlsbad, Calif.). The secondary donkey anti-rabbit IgG horse radish peroxidase conjugate (Cat. #N[…]) and ECL chemiluminesence reagent (Cat.#RPN2209) were purchased from […] (Buckinghamshire, UK). Cell culture tested bovine serum albumin solution (35% in DPBS; Cat.#A7979) and all other chemicals were purchased from SIGMA (St. Louis, Mo.). The Wallac Victor2 1420 Multilabel HTS Counter was purchased from […] (Wellesley, Mass.) […] All wells (except no IGF-1 controls) were then treated with 25 ng/ml IGF-1 for 10 minutes at 37° C. in a 5% CO2 incubator. Following removal of the supernatants and washing with the wells with TBS (50 mM Tris pH 8.0 containing 138 mM NaCL and 27 mM KCl), 200 µL of 3.7% formaldehyde in TBS was added to each well, and the plate was incubated at 4° C. for 10 minutes. Supernatants were once again removed and replaced with 50 μL Methanol (-20° C.) and the plate incubated at 4° C. for 5 minutes. 200 μL of 0.1% BSA in TBS was then added to each well and the plate incubated at room temperature for 1⁄2 hour. Supernatants were removed and 50 μL of a solution comprising the primary anti-phospho-AKT([…]) antibody diluted 1:250 in TBS containing 0.1% BSA was added to each well (except control/background wells). The plate was then incubated for 11⁄2 hour at room temperature. Supernatants were removed, each well was washed 3 times with 200 μL TBS, and 100 μL of a solution containing the secondary donkey anti-rabbit IgG antibody HRP-conjugate diluted 1:100 in TBS-T (TBS containing 0.1% triton). Plates were then incubated for 1 hour at room temperature. After removing the secondary antibody, each well was washed 6 times with cold TBS-T, 100 μL of ECL was added to each well, and the plate was placed on an orbital shaker for 1 minute. The plates were then read on a Wallac Victor2 1420 Multilabel HTS Counter using the luminometry window (maximum light detection is measured at […]). IC50 values were determined from the inhibition curve.

Row | SMILES | IC50 [nM]
1 | COc1c(OCCCN(C)C)ccc2c1N=C(NC(=O)c1cnc(N)s1)N1CCN=C21 [Example 37, 2-amino-N-{8-[3-(dimethylamino)propoxy]-7-methoxy-2,3-dihydroimidazo[1,2-c]quinazolin-5-yl}-1,3-thiazole-5-carboxamide] | < 100
2 | COc1c(OCCCN2CCOCC2)ccc2c1N=C(NC(=O)c1sc(N)nc1C)N1CCN=C21 [Example 6, 2-amino-N-[7-methoxy-8-(3-morpholin-4-ylpropoxy)-2,3-dihydroimidazo[1,2-c]quinazolin-5-yl]-4-methyl-1,3-thiazole-5-carboxamide] | < 100
3 | COc1c(OCCCN2CCOCC2)ccc2c1N=C(NC(=O)c1ccsc1)N1CCN=C21 [Example 97, N-[7-methoxy-8-(3-morpholin-4-ylpropoxy)-2,3-dihydroimidazo[1,2-c]quinazolin-5-yl]thiophene-3-carboxamide] | 100 to 1000
4 | COc1ncc(C(=O)NC2=Nc3c(ccc(OCCCN4CCOCC4)c3OC)C3=NCCN23)cn1 [Example 95, 2-methoxy-N-[7-methoxy-8-(3-morpholin-4-ylpropoxy)-2,3-dihydroimidazo[1,2-c]quinazolin-5-yl]pyrimidine-5-carboxamide] | < 100
5 | COc1c(OCCCN2CCOCC2)ccc2c1N=C(NC(=O)c1sc(C)nc1C)N1CCN=C21 [Example 94, N-[7-methoxy-8-(3-morpholin-4-ylpropoxy)-2,3-dihydroimidazo[1,2-c]quinazolin-5-yl]-2,4-dimethyl-1,3-thiazole-5-carboxamide] | < 100
6 | CCNc1nc(C(=O)NC2=Nc3c(ccc(OCCCN4CCOCC4)c3OC)C3=NCCN23)cs1 [Example 80, 2-(ethylamino)-N-[7-methoxy-8-(3-morpholin-4-ylpropoxy)-2,3-dihydroimidazo[1,2-c]quinazolin-5-yl]-1,3-thiazole-4-carboxamide] | 100 to 1000
7 | COc1c(OCCCN2CCOCC2)ccc2c1N=C(NC(=O)c1cncn1C)N1CCN=C21 [Example 30, N-[7-methoxy-8-(3-morpholin-4-ylpropoxy)-2,3-dihydroimidazo[1,2-c]quinazolin-5-yl]-1-methyl-1H-imidazole-5-carboxamide] | 100 to 1000
8 | COc1c(OCCCN2CCOCC2)ccc2c1N=C(NC(=O)c1cnc(NCCN(C)C)nc1)N1CCN=C21 [Example 45, 2-{[2-(dimethylamino)ethyl]amino}-N-[7-methoxy-8-(3-morpholin-4-ylpropoxy)-2,3-dihydroimidazo[1,2-c]quinazolin-5-yl]pyrimidine-5-carboxamide] | 100 to 1000
9 | COc1c(OCCN(C)C)ccc2c1N=C(NC(=O)c1ccc(C)nc1)N1CCN=C21 [Example 70, N-{8-[2-(dimethylamino)ethoxy]-7-methoxy-2,3-dihydroimidazo[1,2-c]quinazolin-5-yl}-6-methylnicotinamide] | < 100
10 | COc1c(OCCCN2CCOCC2)ccc2c1N=C(NC(=O)c1cnc(N)nc1C)N1CCN=C21 [Example 32, 2-amino-N-[7-methoxy-8-(3-morpholin-4-ylpropoxy)-2,3-dihydroimidazo[1,2-c]quinazolin-5-yl]-4-methylpyrimidine-5-carboxamide] | < 100
11 | CNc1nc(C(=O)NC2=Nc3c(ccc(OCCCN4CCOCC4)c3OC)C3=NCCN23)cs1 [Example 67, N-[7-methoxy-8-(3-morpholin-4-ylpropoxy)-2,3-dihydroimidazo[1,2-c]quinazolin-5-yl]-2-(methylamino)-1,3-thiazole-4-carboxamide] | 100 to 1000
12 | COc1c(OCCCN2CCOCC2)ccc2c1N=C(NC(=O)c1ccc(NC(=O)NC(C)C)nc1)N1CCN=C21 [Example 71, 6-{[(isopropylamino)carbonyl]amino}-N-[7-methoxy-8-(3-morpholin-4-ylpropoxy)-2,3-dihydroimidazo[1,2-c]quinazolin-5-yl]nicotinamide] | < 100
13 | COc1c(OCCCN(C)C)ccc2c1N=C(NC(=O)c1cnc(N)nc1)N1CCN=C21 [Example 42, 2-amino-N-{8-[3-(dimethylamino)propoxy]-7-methoxy-2,3-dihydroimidazo[1,2-c]quinazolin-5-yl}pyrimidine-5-carboxamide] | < 100
14 | COc1c(OCCCN2CCOCC2)ccc2c1N=C(NC(=O)c1ccc(NCc3ccco3)nc1)N1CCN=C21 [Example 54, 6-[(2-furylmethyl)amino]-N-[7-methoxy-8-(3-morpholin-4-ylpropoxy)-2,3-dihydroimidazo[1,2-c]quinazolin-5-yl]nicotinamide] | 100 to 1000
15 | CNc1ncc(C(=O)NC2=Nc3c(ccc(OCCCN4CCOCC4)c3OC)C3=NCCN23)cn1 [Example 90, N-[7-methoxy-8-(3-morpholin-4-ylpropoxy)-2,3-dihydroimidazo[1,2-c]quinazolin-5-yl]-2-(methylamino)pyrimidine-5-carboxamide] | < 100
16 | COc1c(OCCCN2CCOCC2)ccc2c1N=C(NC(=O)c1ccoc1)N1CCN=C21 [Example 96, N-[7-methoxy-8-(3-morpholin-4-ylpropoxy)-2,3-dihydroimidazo[1,2-c]quinazolin-5-yl]-3-furamide] | 100 to 1000
17 | COc1c(OCCCN2C[C@@H](C)O[C@@H](C)C2)ccc2c1N=C(NC(=O)c1sc(C)nc1C)N1CCN=C21 [Example 3, N-(8-{3-[(2R,6S)-2,6-dimethylmorpholin-4-yl]propoxy}-7-methoxy-2,3-dihydroimidazo[1,2-c]quinazolin-5-yl)-2,4-dimethyl-1,3-thiazole-5-carboxamide] | < 100
18 | COc1c(OCCCN2CCOCC2)ccc2c1N=C(NC(=O)c1ccc(N)nc1C)N1CCN=C21 [Example 31, 6-amino-N-[7-methoxy-8-(3-morpholin-4-ylpropoxy)-2,3-dihydroimidazo[1,2-c]quinazolin-5-yl]-2-methyl nicotinamide] | < 100

The remaining lines, values ahead:

Row | IC50 [nM] | SMILES
19 | 100 to 1000 | COc1c(OCCCN2CCN(C)CC2)ccc2c1N=C(NC(=O)c1cccnc1)N1CCN=C21 [Example 64, N-{7-methoxy-8-[3-(4-methylpiperazin-1-yl)propoxy]-2,3-dihydroimidazo[1,2-c]quinazolin-5-yl}nicotinamide]
20 | < 100 | COc1c(OCCN2CCCC2)ccc2c1N=C(NC(=O)c1cccnc1)N1CCN=C21 [Example 75, N-[7-methoxy-8-(2-pyrrolidin-1-ylethoxy)-2,3-dihydroimidazo[1,2-c]quinazolin-5-yl]nicotinamide]
21 | < 100 | COc1c(OCCCN2CCOC(CO)C2)ccc2c1N=C(NC(=O)c1cccnc1)N1CCN=C21 (stereo not shown) [Example 18, N-(8-{3-[2-(hydroxymethyl)morpholin-4-yl]propoxy}-7-methoxy-2,3-dihydroimidazo[1,2-c]quinazolin-5-yl)nicotinamide]
22 | < 100 | COc1c(OCC2CN(C)CCO2)ccc2c1N=C(NC(=O)c1cccnc1)N1CCN=C21 (stereo not shown) [Example 23, N-{7-methoxy-8-[(4-methylmorpholin-2-yl)methoxy]-2,3-dihydroimidazo[1,2-c]quinazolin-5-yl}nicotinamide]
23 | < 100 | COc1c(OCC2CNCCO2)ccc2c1N=C(NC(=O)c1cccnc1)N1CCN=C21 (stereo not shown) [Example 35, N-[7-methoxy-8-(morpholin-2-ylmethoxy)-2,3-dihydroimidazo[1,2-c]quinazolin-5-yl]nicotinamide]
24 | < 100 | COc1c(OCCCN2C[C@@H](C)O[C@@H](C)C2)ccc2c1N=C(NC(=O)c1cccnc1)N1CCN=C21 [Example 2, N-(8-{3-[(2R,6S)-2,6-dimethylmorpholin-4-yl]propoxy}-7-methoxy-2,3-dihydroimidazo[1,2-c]quinazolin-5-yl)nicotinamide]
25 | < 100 | COc1c(OCCCN2CCOCC2)ccc2c1N=C(NC(=O)c1ccc(N)nc1)N1CCN=C21 [Example 83, 6-amino-N-[7-methoxy-8-(3-morpholin-4-ylpropoxy)-2,3-dihydroimidazo[1,2-c]quinazolin-5-yl]nicotinamide]
26 | < 100 | COc1c(OCCCN2CCOCC2)ccc2c1N=C(NC(=O)c1ccc(C)nc1)N1CCN=C21 [Example 101, N-[7-methoxy-8-(3-morpholin-4-ylpropoxy)-2,3-dihydroimidazo[1,2-c]quinazolin-5-yl]-6-methylnicotinamide]
27 | 100 to 1000 | COc1c(OCCCN2CCOCC2)ccc2c1N=C(NC(=O)c1ccc(F)nc1)N1CCN=C21 [Example 78, 6-fluoro-N-[7-methoxy-8-(3-morpholin-4-ylpropoxy)-2,3-dihydroimidazo[1,2-c]quinazolin-5-yl]nicotinamide]
28 | 100 to 1000 | COc1c(OCCN)ccc2c1N=C(NC(=O)c1cccnc1)N1CCN=C21 [Example 82, N-[8-(2-aminoethoxy)-7-methoxy-2,3-dihydroimidazo[1,2-c]quinazolin-5-yl]nicotinamide]
